We go through five compounds from patent US4343816A, “Pharmaceutical composition comprising an acyl-carnitine, for treating peripheral vascular diseases” (priority 1979, dated 1982).

SMILES strings stand for the structures.

A short description of the first data set: Tolerance and toxicity (general statement). Particulars: racemic mixture or separated optically active forms, whatever the route of administration.
As to `CC(=O)OC(CC(=O)[O-])C[N+](C)(C)C` (stereo not drawn) [acetyl-carnitine], the tolerance result was “excellent”.

A short description of the next data set: in vivo. Particulars: mouse, iv. An excerpt: As is known, carnitine contains an asymetrical carbon atom and consequently exists in two stereoisomer forms.
Compound `CC(=O)CC(=O)OC(CC(=O)[O-])C[N+](C)(C)C` (stereo not drawn) [acetoacetyl-carnitine] showed an LD50 of 728 mg/kg. In turn, `CC(O)CC(=O)OC(CC(=O)[O-])C[N+](C)(C)C` (stereo not drawn) [hydroxybutyryl-carnitine] showed an LD50 of 745 mg/kg. Regarding `C[N+](C)(C)CC(CC(=O)[O-])OC(=O)CCC(=O)O` (stereo not drawn) [succinyl-carnitine], the LD50 amounted to 780 mg/kg. The compound `CC(C)CC(=O)OC(CC(=O)[O-])C[N+](C)(C)C` (stereo not drawn) [isovaleryl-carnitine] returned an LD50 of 743 mg/kg. With `CC(=O)OC(CC(=O)[O-])C[N+](C)(C)C` (stereo not drawn) [acetyl-carnitine], the LD50 turned out to be 770 mg/kg.

The LD50 is the dose at which mortality reaches 50%. A high value points to a less toxic substance.
